Measured values taken from ChEMBL document CHEMBL3400099, “Novel thiazole-thiophene conjugates as adenosine receptor antagonists: synthesis, biological evaluation and docking studies” (Bioorg Med Chem Lett, 2015).

Experiments:
Adenosine receptor A3 = biological target: T1, Adenosine receptor A3 (Homo sapiens, UniProt P0DMS8); assay: Displacement of [3H]HEMADO from human adenosine A3 receptor expressed in CHO cells; type: cell-based
T1 sequence (P0DMS8 whole entry): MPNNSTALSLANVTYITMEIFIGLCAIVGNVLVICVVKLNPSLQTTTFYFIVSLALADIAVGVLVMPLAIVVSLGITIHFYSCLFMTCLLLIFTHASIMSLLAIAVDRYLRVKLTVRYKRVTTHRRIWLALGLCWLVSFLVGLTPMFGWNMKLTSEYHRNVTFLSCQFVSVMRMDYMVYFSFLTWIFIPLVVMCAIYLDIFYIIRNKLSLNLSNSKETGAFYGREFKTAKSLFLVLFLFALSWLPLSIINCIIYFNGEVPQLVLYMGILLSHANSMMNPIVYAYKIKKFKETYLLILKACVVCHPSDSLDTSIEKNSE

Homo sapiens = organism: Homo sapiens; assay: Selectivity ratio of Ki for human adenosine A2A receptor to Ki for human adenosine A3 receptor
Adenosine receptor A1 = biological target: T2, Adenosine receptor A1 (Homo sapiens, UniProt P30542); assay: Displacement of [3H]CCPA from human adenosine A1 receptor expressed in CHO cells; type: cell-based
T2 sequence (P30542 whole entry): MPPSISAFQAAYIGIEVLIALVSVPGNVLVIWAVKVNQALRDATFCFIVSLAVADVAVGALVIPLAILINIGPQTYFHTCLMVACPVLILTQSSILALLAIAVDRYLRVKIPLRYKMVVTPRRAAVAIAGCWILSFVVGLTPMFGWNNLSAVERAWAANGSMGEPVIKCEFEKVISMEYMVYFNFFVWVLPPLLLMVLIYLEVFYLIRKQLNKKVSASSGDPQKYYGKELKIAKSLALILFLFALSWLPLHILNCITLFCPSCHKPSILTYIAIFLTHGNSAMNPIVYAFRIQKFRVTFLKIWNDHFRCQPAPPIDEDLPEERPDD

[1] = biological target: Adenosine receptors; A1 & A3 (Homo sapiens) (UniProt P30542+P0DMS8); assay: Selectivity ratio of Ki for human adenosine A1 receptor to Ki for human adenosine A3 receptor
Adenosine receptor A2a = Adenosine receptor A2a (Homo sapiens, UniProt P29274); assay: Displacement of [3H]NECA from human adenosine A2A receptor expressed in CHO cells; type: cell-based
Chain of Adenosine receptor A2a (P29274 whole entry): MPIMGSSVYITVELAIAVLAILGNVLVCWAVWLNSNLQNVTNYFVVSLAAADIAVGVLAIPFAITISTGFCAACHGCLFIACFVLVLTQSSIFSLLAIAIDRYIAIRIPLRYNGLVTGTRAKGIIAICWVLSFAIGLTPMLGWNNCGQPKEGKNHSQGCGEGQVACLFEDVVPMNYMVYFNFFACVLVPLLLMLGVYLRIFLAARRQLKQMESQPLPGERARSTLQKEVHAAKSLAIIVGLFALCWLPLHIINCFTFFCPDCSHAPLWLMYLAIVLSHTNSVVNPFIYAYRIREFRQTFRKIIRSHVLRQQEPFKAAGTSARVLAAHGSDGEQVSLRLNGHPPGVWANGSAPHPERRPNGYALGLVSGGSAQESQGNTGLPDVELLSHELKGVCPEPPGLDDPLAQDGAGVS

| Ki (Adenosine receptor A3) [µM] | Selectivity ratio (Homo sapiens) | Ki (Adenosine receptor A1) [µM] | Selectivity ratio [1] | Ki (Adenosine receptor A2a) [µM] | Compound |
| --- | --- | --- | --- | --- | --- |
| 3.87 | 1.5 | > 30 | > 7.8 | 5.67 | Cc1ccc(Nc2nc(C)c(C(=O)Nc3sc4c(c3C#N)CCCC4)s2)cc1 |
| 4.71 | 3.8 | 23.5 | 5 | 18 | CCOC(=O)c1c(NC(=O)c2sc(Nc3ccc(C)cc3)nc2N(C)C)sc2c1CCCC2 |
| 0.52 | > 19 | > 10 | > 19 | > 10 | CCOC(=O)c1c(NC(=O)c2sc(Nc3ccc(OC)cc3)nc2-c2ccc(C)cc2)sc2c1CCCC2 |
| 0.33 | > 30 | > 30 | > 90 | > 10 | Cc1ccc(Nc2nc(-c3ccc(C)cc3)c(C(=O)Nc3sc4c(c3C(N)=O)CCCC4)s2)cc1 |
| 2.16 | > 14 | > 30 | > 14 | > 30 | CCOC(=O)c1c(NC(=O)c2sc(Nc3ccc(C)cc3)nc2-c2ccc(C)cc2)sc2c1CCCC2 |
| 34 | > 0.29 | > 100 | > 2.9 | > 10 | Cc1ccc(Nc2nc(N(C)C)c(C(=O)Nc3sc4c(c3C#N)CCCC4)s2)cc1 |
| 2.73 | 3.5 | 14 | 5.1 | 9.66 | CCOC(=O)c1c(NC(=O)c2sc(Nc3ccc(OC)cc3)nc2N(C)C)sc(C(=O)OC)c1C |
| 3.91 | 6.8 | 19 | 4.9 | 26.6 | CCOC(=O)c1c(NC(=O)c2sc(Nc3ccc(C)cc3)nc2N(C)C)sc(C(=O)OC)c1C |
| 4.09 | 6.9 | 7.75 | 1.9 | 28.4 | CCOC(=O)c1c(NC(=O)c2sc(Nc3ccccc3)nc2-c2ccc(C)cc2)sc2c1CCCC2 |
| 9.56 | > 3.1 | > 30 | > 3.1 | > 30 | COc1ccc(Nc2nc(-c3ccc(C)cc3)c(C(=O)Nc3sc4c(c3C#N)CCCC4)s2)cc1 |
| 8.22 | > 3.7 | > 30 | > 3.7 | > 30 | CCOC(=O)c1c(NC(=O)c2sc(Nc3ccc(C)cc3)nc2C)sc2c1CCCC2 |

Further lines, the molecule ahead of its results:

| Compound | Ki (Adenosine receptor A3) [µM] | Selectivity ratio (Homo sapiens) | Ki (Adenosine receptor A1) [µM] | Selectivity ratio [1] | Ki (Adenosine receptor A2a) [µM] |
| --- | --- | --- | --- | --- | --- |
| CCOC(=O)c1c(NC(=O)c2sc(NC(=O)OC)nc2N(C)C)sc2c1CCCC2 | > 30 | > 3.3 | > 100 | > 3.3 | > 100 |
| Cc1ccc(-c2nc(Nc3ccccc3)sc2C(=O)Nc2sc3c(c2C(N)=O)CCCC3)cc1 | 0.334 | 10 | 2.38 | 7.1 | 3.44 |
| Cc1ccc(Nc2nc(N(C)C)c(C(=O)Nc3sc4c(c3C(N)=O)CCCC4)s2)cc1 | 7.13 | 3.1 | 32.4 | 4.5 | 22.3 |
| CN(C)c1nc(Nc2ccccc2)sc1C(=O)Nc1sc2c(c1C#N)CCCC2 | 35.6 | > 0.84 | > 30 | > 0.84 | > 30 |
| Cc1ccc(Nc2nc(-c3ccc(C)cc3)c(C(=O)Nc3sc4c(c3C#N)CCCC4)s2)cc1 | > 10 | – | > 10 | – | > 10 |
| CCOC(=O)c1c(NC(=O)c2sc(Nc3ccccc3)nc2N(C)C)sc2c1CCCC2 | 4.12 | 1.6 | 40.8 | 9.9 | 6.45 |
| CCOC(=O)c1c(NC(=O)c2sc(Nc3ccc(C)cc3)nc2C)sc(C(=O)OC)c1C | > 30 | 0.33 | > 30 | – | > 30 |
